Experimental data taken from patent US12679843B2, “Pyrrolopyrimidine amines as complement inhibitors” (BioCryst Pharmaceuticals, Inc., priority 2020, dated 2026).

What follows are molecules tested against Factor D (Homo sapiens, UniProt P00746) (assay: Factor D esterolytic assay (Z-Lys-SBzl thioester substrate, DTNB, 405 nm)). Settings: substrate Z-Lys-SBzl 1.29 mM, 100 mM HEPES, 500 mM NaCl, pH 7.5, 10% DMSO, tested a minimum of three times.
Sequence of Factor D (P00746 26-253): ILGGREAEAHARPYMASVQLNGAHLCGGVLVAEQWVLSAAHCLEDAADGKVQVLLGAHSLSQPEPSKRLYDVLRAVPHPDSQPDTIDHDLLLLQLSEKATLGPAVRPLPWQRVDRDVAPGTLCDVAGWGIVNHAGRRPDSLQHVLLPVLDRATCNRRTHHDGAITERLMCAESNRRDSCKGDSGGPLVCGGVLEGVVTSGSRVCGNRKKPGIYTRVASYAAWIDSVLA
Assay type: biochemical
Procedure, shortened: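 Run in pH 7.5 HEPES (100 mM) with 500 mM NaCl and 10% DMSO, with compound preincubated at room temperature or not before adding 1.29 mM Z-Lys-SBzl. Free thiol released by Factor D reacts with DTNB, and rate is followed at 405 nm minus 690 nm over 600 s. IC50 derives from rate-based inhibition, minimum three replicates.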
For `Nc1ncnc2c1c1cc(Br)cc(F)c1n2CC(=O)N1[C@@H]2C[C@@H]2C[C@H]1C(=O)Nc1cccc(Br)n1` [Compound 376g, (1R,3S,5R)-2-(2-(4-amino-6-bromo-8-fluoro-9H-pyrimido[4,5-b]indol-9-yl)acetyl)-N-(6-bromopyridin-2-yl)-2-azabicyclo[3.1.0]hexane-3-carboxamide], the IC50 was < 0.1 µM.
In the case of `N#Cc1ccc2c(c1)c1c(N)ncnc1n2CC(=O)N1[C@@H]2C[C@@H]2C[C@H]1C(=O)Nc1cccc(Br)n1` [Compound 49c, (1R,3S,5R)-2-(2-(4-amino-6-cyano-9H-pyrimido[4,5-b]indol-9-yl)acetyl)-N-(6-bromopyridin-2-yl)-2-azabicyclo[3.1.0]hexane-3-carboxamide], the IC50 is reported as < 0.1 µM.
For `Nc1ncnc2c1c1nc(Br)ccc1n2CC(=O)N1[C@@H]2C[C@@H]2C[C@H]1C(=O)Nc1cccc(Br)n1` [Compound 290g, (1R,3S,5R)-2-(2-(4-amino-6-bromo-9H-pyrido[2′,3′:4,5]pyrrolo[2,3-d]pyrimidin-9-yl)acetyl)-N-(6-bromopyridin-2-yl)-2-azabicyclo[3.1.0]hexane-3-carboxamide], the IC50 was < 0.1 µM.
For `CN(C)c1ccc2c(c1)c1c(N)ncnc1n2CC(=O)N1[C@@H]2C[C@@H]2C[C@H]1C(=O)Nc1cccc(Br)n1` [Compound 262a, (1R,3S,5R)-2-(2-(4-amino-6-(dimethylamino)-9H-pyrimido[4,5-b]indol-9-yl)acetyl)-N-(6-bromopyridin-2-yl)-2-azabicyclo[3.1.0]hexane-3-carboxamide], the IC50 was < 0.1 µM.
With `Cc1ccc(Br)nc1NC(=O)[C@@H]1C[C@@](C)(F)CN1C(=O)Cn1c2ccc(C(F)(F)F)cc2c2c(N)ncnc21` [Compound 209b, (2S,4R)-1-(2-(4-amino-6-(trifluoromethyl)-9H-pyrimido[4,5-b]indol-9-yl)acetyl)-N-(6-bromo-3-methylpyridin-2-yl)-4-fluoro-4-methylpyrrolidine-2-carboxamide] the IC50 was < 0.1 µM.
Molecule `Nc1ncnc2c1c1cc(C(F)(F)F)ccc1n2CC(=O)N1CC2(CC2)C[C@H]1C(=O)Nc1cccc(Br)n1` [Compound 53d, (S)-5-(2-(4-amino-6-(trifluoromethyl)-9H-pyrimido[4,5-b]indol-9-yl)acetyl)-N-(6-bromopyridin-2-yl)-5-azaspiro[2.4]heptane-6-carboxamide] has an IC50 of 0.1 to 1 µM.
With `Nc1ncnc2c1c1c(F)cccc1n2CC(=O)N1[C@@H]2C[C@@H]2C[C@H]1C(=O)Nc1cccc(Br)n1` [Compound 50f, (1R,3S,5R)-2-(2-(4-amino-5-fluoro-9H-pyrimido[4,5-b]indol-9-yl)acetyl)-N-(6-bromopyridin-2-yl)-2-azabicyclo[3.1.0]hexane-3-carboxamide] the IC50 was 0.1 to 1 µM.
`Nc1ncnc2c1c1cc(C(=O)O)ccc1n2CC(=O)N1[C@@H]2C[C@@H]2C[C@H]1C(=O)Nc1cccc(Br)n1` [Compound 44a, 4-amino-9-(2-((1R,3S,5R)-3-((6-bromopyridin-2-yl)carbamoyl)-2-azabicyclo[3.1.0]hexan-2-yl)-2-oxoethyl)-9H-pyrimido[4,5-b]indole-6-carboxylic acid] was tested, and the IC50 was < 0.1 µM.
`Nc1ncnc2c1c1cccc(Br)c1n2CC(=O)N1[C@@H]2C[C@@H]2C[C@H]1C(=O)Nc1cccc(Br)n1` [Compound 35f, (1R,3S,5R)-2-(2-(4-amino-8-bromo-9H-pyrimido[4,5-b]indol-9-yl)acetyl)-N-(6-bromopyridin-2-yl)-2-azabicyclo[3.1.0]hexane-3-carboxamide] was tested, and the IC50 was < 0.1 µM.
With `COC(=O)c1ccc2c(c1)c1c(N)ncnc1n2CC(=O)N1[C@@H]2C[C@@H]2C[C@H]1C(=O)Nc1cccc(Br)n1` [Compound 39f, methyl 4-amino-9-(2-((1R,3S,5R)-3-((6-bromopyridin-2-yl)carbamoyl)-2-azabicyclo[3.1.0]hexan-2-yl)-2-oxoethyl)-9H-pyrimido[4,5-b]indole-6-carboxylate] the IC50 was < 0.1 µM.
For `Cc1ccc(Cl)nc1NC(=O)[C@@H]1C[C@H]2C[C@H]2N1C(=O)Cn1c2ncnc(N)c2c2cc(C(F)(F)F)cc(C)c21` [Compound 318c, (1R,3S,5R)-2-(2-(4-amino-8-methyl-6-(trifluoromethyl)-9H-pyrimido[4,5-b]indol-9-yl)acetyl)-N-(6-chloro-3-methylpyridin-2-yl)-2-azabicyclo[3.1.0]hexane-3-carboxamide], the IC50 was < 0.1 µM.
In the case of `Nc1ncnc2c1c1ccc(F)cc1n2CC(=O)N1[C@@H]2C[C@@H]2C[C@H]1C(=O)Nc1cccc(Br)n1` [Compound 33e, (1R,3S,5R)-2-(2-(4-amino-7-fluoro-9H-pyrimido[4,5-b]indol-9-yl)acetyl)-N-(6-bromopyridin-2-yl)-2-azabicyclo[3.1.0]hexane-3-carboxamide], the IC50 is reported as < 0.1 µM.
With `C[C@@]12C[C@@H](C(=O)Nc3cccc(Br)n3)N(C(=O)Cn3c4ccc([N+](=O)[O-])cc4c4c(N)ncnc43)[C@@H]1C2` [Compound 202a, (1R,3S,5R)-2-(2-(4-amino-6-nitro-9H-pyrimido[4,5-b]indol-9-yl)acetyl)-N-(6-bromopyridin-2-yl)-5-methyl-2-azabicyclo[3.1.0]hexane-3-carboxamide] the IC50 was < 0.1 µM.
`C[C@@]12C[C@@H](C(=O)NCc3cccc(Cl)c3F)N(C(=O)Cn3cnc4c(N)ncnc43)[C@@H]1C2` [Compound 67c, (1R,3S,5R)-2-(2-(6-amino-9H-purin-9-yl)acetyl)-N-(3-chloro-2-fluorobenzyl)-5-methyl-2-azabicyclo[3.1.0]hexane-3-carboxamide] was tested, and the IC50 was 0.1 to 1 µM.
Work on `Nc1ncc2ncn(CC(=O)N3[C@@H]4C[C@@H]4C[C@H]3C(=O)Nc3cccc(Br)n3)c2n1` [Compound 89b, (1R,3S,5R)-2-(2-(2-amino-9H-purin-9-yl)acetyl)-N-(6-bromopyridin-2-yl)-2-azabicyclo[3.1.0]hexane-3-carboxamide] yielded an IC50 of 0.1 to 1 µM.
For `Nc1ncnc2c1nc(Br)n2CC(=O)N1C[C@H](F)C[C@H]1C(=O)NCc1cccc(Cl)c1F` [Compound 110d, (2S,4R)-1-(2-(6-amino-8-bromo-9H-purin-9-yl)acetyl)-N-(3-chloro-2-fluorobenzyl)-4-fluoropyrrolidine-2-carboxamide], the IC50 was > 1 µM.
For `Nc1ncnc2c1c1cccc(C(F)(F)F)c1n2CC(=O)N1[C@@H]2C[C@@H]2C[C@H]1C(=O)Nc1cccc(Br)n1` [Compound 174g, (1R,3S,5R)-2-(2-(4-amino-8-(trifluoromethyl)-9H-pyrimido[4,5-b]indol-9-yl)acetyl)-N-(6-bromopyridin-2-yl)-2-azabicyclo[3.1.0]hexane-3-carboxamide], the IC50 was > 1 µM.
For `Cc1ccc2c3c(N)ncnc3n(CC(=O)N3[C@H](C(=O)Nc4cccc(Br)n4)C[C@@]4(C)C[C@@H]34)c2c1` [Compound 24a, (1R,3S,5R)-2-(2-(4-amino-7-methyl-9H-pyrimido[4,5-b]indol-9-yl)acetyl)-N-(6-bromopyridin-2-yl)-5-methyl-2-azabicyclo[3.1.0]hexane-3-carboxamide], the IC50 was < 0.1 µM.
For `COc1cc2c(cc1C)c1c(N)ncnc1n2CC(=O)N1[C@@H]2C[C@@H]2C[C@H]1C(=O)Nc1cccc(Br)n1` [Compound 328f, (1R,3S,5R)-2-(2-(4-amino-7-methoxy-6-methyl-9H-pyrimido[4,5-b]indol-9-yl)acetyl)-N-(6-bromopyridin-2-yl)-2-azabicyclo[3.1.0]hexane-3-carboxamide], the IC50 was < 0.1 µM.
